Test results published in US10080779B2, “Method for increasing the expression of anti-microbial peptides by keratinocytes comprising administering a composition comprising IL-17, TNF-alpha and OSM” (Universite D'Angers, priority 2004, dated 2018).

Assays:
[1] = system: RHE; assay: RHE histology and immunohistochemistry (Example 14); type: cell-based, human; details: 72 h; for CK10, LOR and FLG expression (immunohistology) / IVL expression (immunohistology) / S100A7 expression (immunohistology): RHE; for CK10, LOR and FLG expression (immunohistology) / IVL expression (immunohistology) / S100A7 expression (immunohistology) / RHE histology: single cytokines
Description: (§1) Normal human epidermal keratinocytes (NHEK) were obtained as previously described, from surgical samples of healthy breast skin (Boniface et al, 2005). NHEK were cultured to 80% of confluence allowing the expression of a large panel of keratinocyte differentiation markers, and then starved for 24 h in Keratinocyte SFM containing 0.03 mM Ca^2+ (Invitrogen Life Technologies, Cergy Pontoise, France) before stimulation. Confluent differentiated cells were stimulated with or without recombinant IL-17A, OSM, TNFα, IL-22 and IL-1α alone at maximum effective concentrations (reported previously around 10 ng/ml (Boniface et al, 2005 and Boniface et al, 2007)) or in combination (R&D systems Europe, Lille, France) during 2 h to 72 h for mRNA quantification. RHE were generated on polycarbonate culture inserts, from surgical samples of paediatric foreskins as previously described (Guenou et al., 2009). RHE were stimulated with or without recombinant IL-17A, OSM, TNFα, IL-22 and IL-1α alone or in combination, with or without a Janus protein Tyrosine Kinases (JAKs) inhibitor 10 μM (Calbiochem, 420099), during 24 h for mRNA quantification or during 72 h for immunohistological analysis.
RHE were washed and fixed with formaldehyde solution. Fixed tissues were dehydrated with increasing ethanol concentrations, embedded in paraffin and sections were carried out using a microtome (4 μm thickness). The sections were deparaffinised, washed and incubated with hydrogen peroxide. The sections were incubated with anti-CK10 (SantaCruz, SC-23877), anti-LOR (Eurogentec, PRB-145P), anti-FLG (SantaCruz, SC-66192), anti-IVL (Biomedical Technologies, BT-601), anti-S100A7 (Clinisciences, IMG-409A) and then detected using a biotin-conjugated secondary antibody (Vector, RTU vectastain universal quick kit, PK-7800). After peroxidase-conjugated streptavidine (Vector, RTU vectastain universal quick kit, PK-7800) and peroxidase substrate addition (Dako, Substrat hyper-sensible AEC+), nuclei were counter-stained using a solution of hematoxylin. Sections were observed using a NIKON E400 microscope. The images were captured using a NIKON DS-Ril and processed with NIS-Elements 3.10 software.

[2] = system: NHEK; assay: Cytokine measurement by ELISA in NHEK culture supernatants; type: cell-based, human; details: 96 h; for Redundancy with the family member it replaces in M5 (BD2 and CXCL8 production): IL-1β for IL-1α, TNFβ for TNFα, IL-17F for IL-17A, IL-24 for IL-22, IL-6 for OSM
Description: (§2) NHEK were obtained as previously described, from surgical samples of healthy breast skin (Boniface et al, 2005). NHEK were cultured to 80% of confluence and then starved for 24 h in Keratinocyte SFM without addition of growth factors before stimulation. Cells were stimulated with or without 10 ng/ml of recombinant IL-17A, OSM, TNFα, IL-22 and IL-1α alone or in combination (R&D systems Europe, Lille, France) during 24 h for mRNA quantification or 48 h to 96 h for protein quantification.
Levels of BD2, BD3 and CXCL8 were determined using Human ELISA development kit (Peprotech), and CXCL1 and CXCL5 with DuoSet reagents (R&D Systems Europe).

[3] = system: NHEK; assay: cDNA macroarrays analysis of 36 cytokines on 154 genes in NHEK; type: cell-based, human; details: 10 ng/ml, 24 h
Description: The comparison of the effects of 36 different cytokines on the expression of 154 genes of potential interest for skin physiology was performed using home-made cDNA macroarrays analysis. After cytokine stimulation, total RNA was extracted using TRIzoI® Reagent (Invitrogen life Technologies) and conventional 33P-cDNA target synthesis and hybridization were performed (Boniface et al, 2007). Genes were considered regulated if expression levels differed more than 3-fold relative to untreated control and 3-fold relative to mean background noise.

[4] = system: RHE; assay: KDM mRNA in reconstituted human epidermis (RT-PCR); type: cell-based; details: 24 h
Description: as §1
(§3) NHEK, RHE and murine skin total RNA were isolated using NucleoSpin® RNA II kit (Macherey-Nagel, Hoerdt, France) and reverse-transcribed with SuperScript® II Reverse Transcriptase (Invitrogen Life Technologies) according to the manufacturer's instructions. Quantitative real time PCR was carried out using the LightCycler-FastStart DNA Master SYBR® Green I kit on LightCycler 480 (Roche Diagnostics, Meylan, France). The reaction components were 1×DNA Master Mix, and 0.5 μM of HPLC purified sense and anti-sense oligonucleotides purchased from Eurogentec (Eurogentec France, Angers, France), designed using Primer3 software. The stability of the housekeeping gene expression has been assessed by using GeNorm algorithm. […] Thus samples were normalized to G3PDH housekeeping gene and reported according to the ΔΔCT method as RNA fold increase: 2^ΔΔCT=2^ΔCT sample−ΔCT reference.

[5] = system: normal human keratinocytes (NHEK); assay: Cytokine cocktails on S100A7, hBD2/4, KRT10 mRNA in NHEK (RT-Q-PCR); type: cell-based; details: NHEK 24 hrs, 1 ng/ml each
Description: Quantitative real time PCR was carried out using the LightCycler-FastStart DNA Master^PLUS SYBR Green I kit (Roche, Mannheim, Germany). The reaction components were 1× FastStart DNA Master^PLUS SYBR Green I and 0.5 μM of forward and reverse primers for S100A7 (forward 5′-[…]-3′ (SEQ ID No: 9) and reverse 5′-[…]-3′ (SEQ ID No: 10)), S100A8 (Pattyn, Speleman et al. 2003), S100A9 (forward 5′-[…]-3′ (SEQ ID No: 11) and reverse 5′-[…]-3′ (SEQ ID No: 12)), hBD2/4 (forward 5′-[…]-3′ (SEQ ID No: 13) and reverse 5′-[…]-3′ (SEQ ID No: 14)), KRT10 (forward 5′-[…]-3′ (SEQ ID No: 15) and reverse 5′-[…]-3′ (SEQ ID No: 16)), and hydroxymethyl-bilane synthase (HMBS) as a housekeeping gene (Vandesompele, De Preter et al. 2002). After cDNA fluorescent quantification using propidium iodide, 250 ng, 25 ng and 2.5 ng of cDNA were added as PCR template in the LightCycler glass capillaries. The cycling conditions comprised a 10 min polymerase activation at 95° C. and 50 cycles at 95° C. for 10 s, 64° C. for 5 s and 72° C. for 18 s with a single fluorescence measurement. […] A mathematical model was used to determine the relative quantification of target genes compared to HMBS reference gene (Pfaffl 2001).
To that aim, confluent normal human keratinocytes (NHEK) were treated for 24 hrs with the indicated mix of cytokines (each cytokine at 1 ng/ml final concentration). Total RNA was extracted, reverse-transcribed and the expression of the selected genes was analyzed by real-time PCR as described.

[6] = system: NHEK; assay: RT-QPCR of antimicrobial peptide and chemokine genes in NHEK; type: cell-based, human; details: 10 ng/ml, 24 h
Description: as §2
NHEK and skin total RNA were isolated and reverse-transcribed as previously described (Boniface et al, 2005). Quantitative real time PCR was carried using the LightCycler-FastStart DNA Master SYBR® Green I kit on LightCycler 480 (Roche Diagnostics, Meylan, France). The reaction components were 1×DNA Master Mix, and 0.5 μM of HPLC purified sense and anti-sense oligonucleotides purchased from Eurogentec (Eurogentec France, Angers, France), designed using Primer3 software. Samples were normalized to three independent control housekeeping genes (G3PDH, RPL13A or ACTB for human samples and G3PDH, HMBS or B2m for mouse samples) and reported according to the ΔΔCT method as RNA fold increase: 2^ΔΔCT=2^ΔCT sample−ΔCT eference. For comparison of normal skin and psoriatic skin the REST 2008 software was used (Pfaffl et al., 2002).

[7] = system: NHEK; assay: Keratinocyte differentiation marker (KDM) mRNA in NHEK (RT-PCR); type: cell-based, human; details: 24 h; for mRNA expression of CK1, DSG1, DSC1, FLG, CLSP, LOR and FABPS: single cytokines 10 ng/ml
Description: as §1, §3

## CC(C)(C)c1nc2c3ccc(F)cc3c3c(=O)[nH]ccc3c2[nH]1 [JAKs inhibitor, reference compound]
[1]; JAKs inhibitor 10 μM with M5 (3 ng/ml)
  Effect on M5-induced RHE disruption and hyperplasia: protects the integrity of the RHE and blocked the epidermal hyperplasia

## IL-1β: cytokine of the same family as IL-1α
[2]
  Redundancy with the family member it replaces in M5 (BD2 and CXCL8 production): total redundancy
[3]
  Number of genes (of 154) whose expression is modified with at least a three fold increase or decrease: at least five genes

## IL-6: cytokine of the same family as OSM
[2]
  Redundancy with the family member it replaces in M5 (BD2 and CXCL8 production): weak redundancy
[3]
  Number of genes (of 154) whose expression is modified with at least a three fold increase or decrease: at least five genes

## IL-17A: recombinant cytokine; IL-17 designates IL-17A, IL-17B or a mixture, preferably IL-17A
[2]; 10 ng/ml
  BD2 production, single cytokines: most potent inducers
[2]
  Contribution to M5 activity on BD2 and CXCL8 production (successive removal): more critical to the activity of the M5 combination
[3]
  Number of genes (of 154) whose expression is modified with at least a three fold increase or decrease: at least five genes
[4]
  IVL mRNA expression: discretely inhibited
[5]
  Decrease of the activity of the 5 cytokines reference mix on omission of the cytokine, S100A7: 4.5 fold
  Decrease of the activity of the 5 cytokines reference mix on omission of the cytokine, hBD2/4: 36 fold
[6]
  Number of the 21 chemokine and antimicrobial peptide genes upregulated: 16
[1]
  CK10, LOR and FLG expression (immunohistology): did not exhibit any activity
  IVL expression (immunohistology): discreetly induced
  S100A7 expression (immunohistology): very slightly
  RHE histology: does not modify RHE histology
[7]
  Number of KDM whose control mRNA expression is partially restored on removal of the cytokine from M5: 3 KDM
  mRNA expression of CK1, DSG1, DSC1, FLG, CLSP, LOR and FABPS: minor activities

## TNFα
[2]
  Contribution to M5 activity on BD2 and CXCL8 production (successive removal): more critical to the activity of the M5 combination
[3]
  Number of genes (of 154) whose expression is modified with at least a three fold increase or decrease: at least five genes
[5]
  Decrease of the activity of the 5 cytokines reference mix on omission of the cytokine, S100A7: 3 fold
  Decrease of the activity of the 5 cytokines reference mix on omission of the cytokine, hBD2/4: 5.6 fold
[6]
  Number of the 21 chemokine and antimicrobial peptide genes upregulated: 20
[1]
  CK10, LOR and FLG expression (immunohistology): did not exhibit any activity
  IVL expression (immunohistology): discreetly induced
  S100A7 expression (immunohistology): very slightly
  RHE histology: does not modify RHE histology
[7]
  Rank as contributor to keratinocyte differentiation inhibition (removal from M5): most potent cytokines for keratinocyte differentiation inhibition
  mRNA expression of CK1, DSG1, DSC1, FLG, CLSP, LOR and FABPS: downregulate mRNA expression

B1: IL-24: cytokine of the same family as IL-22 (protein, UniProt Q13007 52-206, looked up)
Interleukin-24: QEFHFGPCQVKGVVPQKLWEAFWAVKDTMQAQDNITSARLLQQEVLQNVSDAESCYLVHTLLEFYLKTVFKNYHNRTVEVRTLKSFSTLANNFVLIVSQLQPSQENEMFSIRDSAHRRFLLFRRAFKQLDVEAALTKALGEVDILLTWMQKFYKL
[2]
  Redundancy with the family member it replaces in M5 (BD2 and CXCL8 production): limited redundancy
[3]
  Number of genes (of 154) whose expression is modified with at least a three fold increase or decrease: at least five genes

B2: IL-17F: cytokine of the same family as IL-17A (protein, UniProt Q96PD4 31-163, looked up)
Interleukin-17F: RKIPKVGHTFFQKPESCPPVPGGSMKLDIGIINENQRVSMSRNIESRSTSPWNYTVTWDPNRYPSEVVQAQCRNLGCINAQGKEDISMNSVPIQQETLVVRRKHQGCSVSFQLEKVLVTVGCTCVTPVIHHVQ
[2]
  Redundancy with the family member it replaces in M5 (BD2 and CXCL8 production): limited redundancy

B3: TNFβ: cytokine of the same family as TNFα (protein, UniProt P01374 35-205, looked up)
Lymphotoxin-alpha: LPGVGLTPSAAQTARQHPKMHLAHSTLKPAAHLIGDPSKQNSLLWRANTDRAFLQDGFSLSNNSLLVPTSGIYFVYSQVVFSGKAYSPKATSSPLYLAHEVQLFSSQYPFHVPLLSSQKMVYPGLQEPWLHSMYHGAAFQLTQGDQLSTHTDGIPHLVLSPSTVFFGAFAL
[2]
  Redundancy with the family member it replaces in M5 (BD2 and CXCL8 production): strong redundancy

B4: INFγ: gamma Interferon (protein, UniProt P01579 24-161, looked up)
Interferon gamma: QDPYVKEAENLKKYFNAGHSDVADNGTLFLGILKNWKEESDRKIMQSQIVSFYFKLFKNFKDDQSIQKSVETIKEDMNVKFFNSNKKKRDDFEKLTNYSVTDLNVQRKAIHELIQVMAELSPAAKTGKRKRSQMLFRG
[5]
  Effect of depleting the cytokine from the mix on activity of the complete cocktail: did not significantly decrease the activity
